{
  "source": "patent US20020127202A1",
  "about": "“Compounds and compositions for delivering active agents” (Emisphere Technologies, Inc., priority 1996, published 2002)",
  "key": {"[1]": {"test": "Delivery agent enhancement of salmon calcitonin bioavailability, subcutaneous administration in rats (serum calcium)", "assay_type": "in vivo, Male Sprague-Dawley rats", "conditions": "sCT 0.2 μg/kg"}, "[2]": {"test": "Delivery agent enhancement of parathyroid hormone bioavailability in rats (serum PTH radioimmunoassay)", "quoted_text": "(§1) The delivery agents were reconstituted with distilled water and/or propylene glycol and adjusted to an apparent pH of 7.2-8.0 with either aqueous hydrochloric acid or aqueous sodium hydroxide. A stock solution of parathyroid hormone was prepared by dissolving parathyroid hormone in water. The parathyroid hormone solution was then added to the delivery agent solution. Several different delivery agent to active agent ratios were studied.\n(§2) Male Sprague-Dawley rats weighing 200-250 g were fasted for 24 hours and administered ketamine (44 mg/kg) and chlorpromazine (1.5 mg/kg) 15 minutes prior to dosing. The rats were administered one of the dosing solutions described above by oral gavage or intracolonic instillation. Blood samples were collected serially from the tail artery for serum determination of parathyroid hormone concentration. Serum parathyroid hormone concentrations were quantified by a parathyroid hormone radioimmunoassay test kit.\n(§3) Oral administration of solutions containing parathyroid hormone (PTH) and the non-α-amino acid delivery agents was tested in vivo in rats."}, "[3]": {"conditions": "rat, in vivo, 100 mg/kg", "quoted_text": "as §1, §2, §3"}, "[4]": {"test": "In vivo delivery of heparin by oral administration in rats (APTT)", "protocol": "In a test tube, 900 mg of carrier were dissolved in 3 mL of propylene glycol, and 0.299 g of sodium heparin was dissolved in 3 mL of water. The solutions were mixed by vortex. Sodium hydroxide (10 M) was added to the resulting mixture until a solution was obtained. The pH was then adjusted to 7.4+/−0.5 with concentrated hydrochloric acid, and the final solution was sonicated at for 30 minutes.\nA group of fasted, conscious rats were administered the dosing compositions by oral gavage. Blood samples were collected by cardiac puncture following the administration of ketamine (44 mg/kg)., Heparin activity was determined by utilizing the activated partial thromboplastim time (APTT) according to the method of Henry, J. B., Clinical Diagnosis and Management by Laboratory Methods; Philadelphia, Pa.; W B Saunders (1979).\nHeparin (100 mg/kg) was administered by oral gavage to rats, and heparin activity was determined according to the procedure of Example 44."}, "[5]": {"test": "In vivo delivery of interferon α2b by intracolonic administration in rats (ELISA)", "conditions": "carrier dose 100 mg/kg, interferon dose 250 μg/kg", "protocol": "Propylene glycol (0-25%) was added as a solubilizing agent, if necessary.\nRats were administered the dosing composition by oral gavage, intraduodenal administration, or intracolonic administration."}, "[6]": {"test": "In vivo delivery of rhGH in rats (serum rhGH by ELISA)", "conditions": "oral, no carrier (0 mg/kg), rhGH dose 6 mg/kg", "protocol": "Dosing compositions were prepared by mixing the modified amino acids and recombinant human growth hormone (rhGH) as listed in Table 1 below in a phosphate buffer solution at a pH of about 7-8.\nRats were administered the dosing composition by sublingual, oral gavage, intraduodenal administration, or colonic administration. Delivery was evaluated by using an ELISA assay for rhGH from Medix Biotech, Inc. For intracolonic administration, a sample was prepared and dosed to fasted rats at 25 mg/kg of carrier in a buffered solution containing propylene glycol (0-50%) and 1 mg/kg rhGH."}, "[7]": {"test": "Delivery agent enhancement of rhGH bioavailability, subcutaneous administration in rats", "quoted_text": "The delivery agents were reconstituted with distilled water and adjusted to pH 7.2-8.0 with either aqueous hydrochloric acid or aqueous sodium hydroxide. A stock solution of rhGH was prepared by mixing rhGH, D-mannitol and glycine and dissolving this mixture in 2% glycerol/water. The stock solution was then added to the delivery agent solution. Several delivery agent to active agent ratios were studied.\nMale Sprague-Dawley rats weighing 200-250g were fasted for 24 hours and administered ketamine (44 mg/kg) and chlorpromazine (1.5 mg/kg) 15 minutes prior to dosing. The rats were administered one of the dosing solutions described above by subcutaneous injection, intranasal instillation, or sublingual instillation. Blood samples were collected serially from the tail artery for serum calcium concentration determination or serum rhGH concentrations. The dose of rhGH administered in these experiments was 0.1 mg/kg.\nSerum rhGH concentrations were quantified by an rhGH enzyme immunoassay test kit."}, "[8]": {"test": "In vivo delivery of salmon calcitonin in rats (serum calcium)", "protocol": "400 mg of carrier were added to 2.9 mL of 25% aqueous propylene glycol. The resultant solution was stirred, and the pH was adjusted to 7.2 with sodium hydroxide (1.0 N). Water was added to bring the total volume to […]. […] Calcitonin (10 μg) was added to the solution. The total calcitonin concentration was 2.5 μg/mL.\nFor each sample a group of fasted rats were anesthetized. The rats were administered the dosing composition by oral gavage, intracolonic instillation, or intraduodenal administration. Blood samples were collected serially from the tail artery. Serum calcium was determined by testing with a Calcium Kit (Sigma Chemical Company, St. Louis, Mo., USA)."}, "[9]": {"conditions": "intracolonic, carrier dose 100 mg/kg, PTH dose 25 μg/kg"}, "[10]": {"conditions": "carrier dose 300 mg/kg, heparin dose 100 mg/kg"}, "[11]": {"conditions": "subcutaneous, delivery agent dose 1.0 mg/kg, rhGH 0.1 mg/kg"}, "[12]": {"conditions": "subcutaneous, delivery agent dose 2.5 mg/kg, rhGH 0.1 mg/kg"}},
  "note": "Where two headings read alike, the source gives them in different places.",
  "data": [
    {"compound": "O=C(O)CCCCCCCNC(=O)c1ccccc1Br", "note": "[CXIV]", "values": [
      {"measurement": "Percent Decrease in Serum Calcium", "setting": "[1]; delivery agent dose 20 μg/kg", "value": "20 ± 3", "unit": "%"},
      {"measurement": "Peak Serum [PTH]", "setting": "[2]; [9]", "value": "65 ± 15", "unit": "pg/mL"}
    ]},
    {"compound": "CN(C)c1cccc(C(=O)Nc2ccc(CCCC(=O)O)cc2)c1", "note": "[LVIII]", "values": [
      {"measurement": "Peak Serum [PTH]", "setting": "[3]", "value": "145 ± 25", "unit": "pg/mL"}
    ]},
    {"compound": "CCC(C(=O)NCCCC(=O)O)C1CCCCC1", "note": "(stereo not shown) [Compound III]", "values": [
      {"measurement": "Mean Peak APTT", "setting": "[4]; [10]", "value": "38.64 ± 17", "unit": "s"}
    ]},
    {"compound": "COc1ccccc1/C=C/C(=O)Nc1ccc(CCC(=O)O)cc1", "note": "[Compound LXXXVI]", "values": [
      {"measurement": "Peak Serum [PTH]", "setting": "[3]", "value": "40 ± 12", "unit": "pg/mL"}
    ]},
    {"compound": "O=C(O)CCCCCCCCCNC(=O)c1ccccc1O", "note": "[Compound XXXI]", "values": [
      {"measurement": "Mean Peak APTT", "setting": "[4]; carrier dose 50 mg/kg, heparin dose 10 mg/kg", "value": "50.85 ± 9.1", "unit": "s"},
      {"measurement": "Mean Peak APTT", "setting": "[4]; carrier dose 50 mg/kg, heparin dose 25 mg/kg", "value": "127.56 ± 22.97", "unit": "s"}
    ]},
    {"compound": "O=C(O)CCCc1ccc(NC(=O)CCOc2ccccc2)cc1", "note": "[CVIII]", "values": [
      {"measurement": "Peak Serum [PTH]", "setting": "[3]", "value": "115 ± 20", "unit": "pg/mL"}
    ]},
    {"compound": "O=C(O)CCCCCCCNC(=O)/C=C/c1ccccc1O", "note": "[Compound XXI]", "values": [
      {"measurement": "Mean Peak Serum Levels of Interferon", "setting": "[5]", "value": "4238 ± 2789", "unit": "pg/mL"}
    ]},
    {"compound": "rhGH: recombinant human growth hormone, active agent dosed alone (Comparative Examples 5A, 16A)", "values": [
      {"measurement": "Mean Peak Serum Levels of rhGH", "setting": "[6]", "value": "<10 ± 10", "unit": "ng/mL"},
      {"measurement": "Peak Serum [rhGH]", "setting": "[7]; no delivery agent (0.0 mg/kg), rhGH alone", "value": "4 ± 2", "unit": "ng/mL"}
    ]},
    {"compound": "O=C(O)CCCNC(=O)C1CCCCCC1", "note": "[Compound II]", "values": [
      {"measurement": "Mean Peak APTT", "setting": "[4]; [10]", "value": "25.45 ± 2.8", "unit": "s"}
    ]},
    {"compound": "O=C(O)CCCCCCCNC(=O)c1ccccc1O", "note": "[Compound XIX]", "values": [
      {"measurement": "Maximum Decrease in Serum Calcium", "setting": "[8]; intracolonic, carrier dose 10 mg/kg, calcitonin dose 3 μg/kg", "value": "26.49 +/− 12.3 % below baseline"},
      {"measurement": "Maximum Decrease in Serum Calcium", "setting": "[8]; oral, carrier dose 200 mg/kg, calcitonin dose 7.5 μg/kg", "value": "25.48 +/− 4.7 % below baseline"},
      {"measurement": "Mean Peak APTT", "setting": "[4]; [10]", "value": "119.99 ± 56.3", "unit": "s"}
    ]},
    {"compound": "COc1ccccc1/C=C/C(=O)Nc1ccc(CCCC(=O)O)cc1", "note": "[LXXXIX]", "values": [
      {"measurement": "Peak Serum [PTH]", "setting": "[3]", "value": "70 ± 15", "unit": "pg/mL"}
    ]},
    {"compound": "O=C(O)CCCCCCCNC(=O)c1ccccc1O", "note": "[CXXIII]", "values": [
      {"measurement": "Percent Decrease in Serum Calcium", "setting": "[1]; delivery agent dose 2 μg/kg", "value": "17 ± 3", "unit": "%"},
      {"measurement": "Percent Decrease in Serum Calcium", "setting": "[1]; delivery agent dose 20 μg/kg", "value": "25 ± 4", "unit": "%"},
      {"measurement": "Percent Decrease in Serum Calcium", "setting": "[1]; delivery agent dose 200 μg/kg", "value": "25 ± 5", "unit": "%"},
      {"measurement": "Percent Decrease in Serum Calcium", "setting": "[1]; delivery agent dose 2000 μg/kg", "value": "26 ± 5", "unit": "%"},
      {"measurement": "Peak Serum [rhGH]", "setting": "[7]; [11]", "value": "22 ± 3", "unit": "ng/mL"},
      {"measurement": "Peak Serum [rhGH]", "setting": "[7]; [12]", "value": "25 ± 5", "unit": "ng/mL"},
      {"measurement": "Peak Serum [rhGH]", "setting": "[7]; subcutaneous, delivery agent dose 25 mg/kg, rhGH 0.1 mg/kg", "value": "30 ± 6", "unit": "ng/mL"},
      {"measurement": "Peak Serum [PTH]", "setting": "[2]; [9]", "value": "130 ± 20", "unit": "pg/mL"},
      {"measurement": "Peak Serum [PTH]", "setting": "[2]; oral, carrier dose 250 mg/kg, PTH dose 25 μg/kg", "value": "20 ± 6", "unit": "pg/mL"},
      {"measurement": "Peak Serum [PTH]", "setting": "[2]; oral, carrier dose 250 mg/kg, PTH dose 100 μg/kg", "value": "75 ± 25", "unit": "pg/mL"}
    ]},
    {"compound": "O=C(O)CCCNC(=O)C1CCCCC1", "note": "[Compound V]", "values": [
      {"measurement": "Maximum Decrease in Serum Calcium", "setting": "[8]; oral, carrier dose 400 mg/kg, calcitonin dose 10 μg/kg", "value": "18.35 +/− 2.87 % below baseline"},
      {"measurement": "Mean Peak APTT", "setting": "[4]; [10]", "value": "87.4 ± 34.1", "unit": "s"}
    ]},
    {"compound": "O=C(O)CCCCCCNC(=O)c1ccccc1O", "note": "[CXI]", "values": [
      {"measurement": "Percent Decrease in Serum Calcium", "setting": "[1]; delivery agent dose 20 μg/kg", "value": "21 ± 4", "unit": "%"},
      {"measurement": "Peak Serum [rhGH]", "setting": "[7]; [12]", "value": "16 ± 2", "unit": "ng/mL"}
    ]},
    {"compound": "O=C(O)CCCCCCCNC(=O)c1cccc([N+](=O)[O-])c1", "note": "[Compound CXV]", "values": [
      {"measurement": "Peak Serum [rhGH]", "setting": "[7]; [11]", "value": "25 ± 3", "unit": "ng/mL"}
    ]}
  ]
}
